A short description of data set [1]: in vivo. The note with it: rat, po.
In data set [2] the test system is strips of the ileum. The experiment in a line: 100% inhibition of peristaltic motility of ileum strips, Pharmacological Test 1(b). Also noted: species or system guinea pig (female Hartley). The settings on record: for IC100: Cavia porcellus, read-out: IC100 (dose causing 100% inhibition of the motility of the strip). The procedure:
(b) Experiments on the inhibition of peristaltic motility of intestinal strips were carried out in the same manner as Experiment (a) except that guaiacol, creosol, cresol, phenol and xylenol, all of which are components of creosote, were respectively used in lieu of creosote.

Where two headings read alike, the source gives them in different places.

The LD50 is the dose at which mortality reaches 50%. In the case of `COc1ccccc1O` [Guaiacol, guaiacol], the LD50 in data set [1] came out at 725 mg/kg. Also, the “antispasmodic activity (inhibition of intestinal motility), in words” value in data set [2] was “antispasmodic activity comparable to that of creosote”. The IC100 in data set [2] (strips of the ileum) is 100 µg/mL.

With xylenol, the “antispasmodic activity (inhibition of intestinal motility), in words” value in data set [2] is given as “antispasmodic activity comparable to that of creosote”. The “IC100 (dose causing 100% inhibition of the motility of the strip)” value in data set [2] (strips of the ileum) was 0.0001 g/mL.

For the molecule `COc1cc(C)ccc1O` [Creosol, creosol], the “antispasmodic activity (inhibition of intestinal motility), in words” value in data set [2] is “antispasmodic activity comparable to that of creosote”. Also, in data set [2] (strips of the ileum), the IC100 was 100 µg/mL.

As to cresol, the “antispasmodic activity (inhibition of intestinal motility), in words” value in data set [2] is “antispasmodic activity comparable to that of creosote”. The “IC100 (dose causing 100% inhibition of the motility of the strip)” value in data set [2] (strips of the ileum) worked out at 0.0001 g/mL.

In turn, `Cc1ccccc1O` [o-Cresol] came in with an LD50 in data set [1] of 1350 mg/kg.

Turning to `Cc1cccc(O)c1` [m-Cresol], in data set [1], the LD50 came to 2020 mg/kg.

In the case of `Oc1ccccc1` [Phenol, phenol], the LD50 in data set [1] worked out at 530 mg/kg. Besides, in data set [2], the “antispasmodic activity (inhibition of intestinal motility), in words” value is recorded as “antispasmodic activity comparable to that of creosote” and the IC100 is 100 µg/mL.

`Cc1ccc(O)cc1` [p-Cresol]: in data set [1], the LD50 came to 1800 mg/kg.

The values above are taken from patent US5112872A, “Antispasmodic agent” (Taiko Pharmaceutical Co., Ltd., priority 1989, dated 1992).
